From ChEMBL document CHEMBL5356971, “Optimization of the Antibacterial Spectrum and the Developability Profile of the Novel-Class Natural Product Corramycin” (J Med Chem, 2023)
Active and inactive are the calls of the source. The rule behind the calls is not given here.

Assays:
Acinetobacter baumannii [1] = test: Antibacterial activity against Acinetobacter baumannii ATCC 19606 assessed as reduction in microbial growth incubated for 20 to 22 hrs by CLSI based analysis; format: functional; details: time 20-22 hrs
Klebsiella pneumoniae [2] = test: Antibacterial activity against Klebsiella pneumoniae ATCC 13883 assessed as reduction in microbial growth incubated for 20 to 22 hrs by CLSI based analysis; format: functional; details: time 20-22 hrs
Escherichia coli [3] = test: Antibacterial activity against Escherichia coli ATCC 35218 assessed as reduction in microbial growth incubated for 20 to 22 hrs by CLSI based analysis; format: functional; details: time 20-22 hrs
Escherichia coli [4] = test: Antibacterial activity against Escherichia coli ATCC 35218 harboring SbmA assessed as reduction in microbial growth incubated for 20 to 22 hrs by CLSI based analysis; format: functional; details: time 20-22 hrs
Klebsiella pneumoniae [5] = test: Antibacterial activity against Klebsiella pneumoniae ATCC 13883 infected in Swiss albino mouse model of neutropenic lung infection at 10 mg/kg, iv pretreated for 1 hr followed by bacterial infection and measured after 5 hr post infection; format: functional, organism-based; details: time 6.0 hrs
Klebsiella pneumoniae [6] = test: Antibacterial activity against Klebsiella pneumoniae ATCC 13883 infected in Swiss albino mouse thigh infection model at 10 mg/kg, iv measured after 1 hr; format: functional, organism-based
[7] = Metabolic stability in mouse lung assessed as parent compound remaining measured after 1 hrs by UPLC-MS analysis; format: ADME, tissue-based; details: for remaining at 1 h: mouse lung, read-out: Stability
[8] = Metabolic stability in mouse kidney assessed as parent compound remaining measured after 1 hrs by UPLC-MS analysis; format: ADME, tissue-based; details: read-out: Stability
Klebsiella pneumoniae [9] = test: Antibacterial activity against wild type Klebsiella pneumoniae ATCC 13883 assessed as reduction in microbial growth incubated for 20 to 22 hrs by CLSI based analysis; format: functional; details: time 20-22 hrs
Escherichia coli [10] = test: Antibacterial activity against wild type Escherichia coli ATCC 35218 assessed as reduction in microbial growth incubated for 20 to 22 hrs by CLSI based analysis; format: functional; details: time 20-22 hrs
[11] = Metabolic stability in mouse kidney assessed as parent compound remaining measured after 4 hrs by UPLC-MS analysis; format: ADME, tissue-based; details: read-out: Stability
[12] = Metabolic stability in mouse lung assessed as parent compound remaining measured after 4 hrs by UPLC-MS analysis; format: ADME, tissue-based; details: for remaining at 4 h: mouse lung, read-out: Stability
Klebsiella pneumoniae [13] = test: Antibacterial activity against Klebsiella pneumoniae ATCC 13883 harboring SbmA assessed as reduction in microbial growth incubated for 20 to 22 hrs by CLSI based analysis; format: functional; details: time 20-22 hrs
Escherichia coli [14] = test: Antibacterial activity against Escherichia coli ATCC 25922 infected in Swiss albino mouse thigh infection model at 10 mg/kg, iv measured after 1 hr; format: functional, organism-based
Acinetobacter baumannii [15] = test: Antibacterial activity against wild type Acinetobacter baumannii ATCC 19606 assessed as reduction in microbial growth incubated for 20 to 22 hrs by CLSI based analysis; format: functional; details: time 20-22 hrs
Escherichia coli [16] = test: Antibacterial activity against Escherichia coli ATCC 35218 infected in Swiss albino mouse model of Septicaemia infection assessed as log reduction in Septicaemia in blood at 20 mg/kg , iv preincubated for 4 hrs followed by bacterial infection and measured after 4 hrs post infection; format: functional; details: time 8 hrs
Escherichia coli [17] = test: Antibacterial activity against Escherichia coli ATCC 35218 infected in Swiss albino mouse model of Septicaemia infection assessed as log reduction in Septicaemia in blood at 1 mg/kg , iv preincubated for 4 hrs followed by bacterial infection and measured after 4 hrs post infection; format: functional; details: time 8 hrs

SMILES	MIC (Acinetobacter baumannii [1]) [µg/mL]	MIC (Klebsiella pneumoniae [2]) [µg/mL]	MIC (Escherichia coli [3]) [µg/mL]	remaining at 1 h [7] [%]	remaining at 1 h [8] [%]	remaining at 4 h [11] [%]	remaining at 4 h [12] [%]	also measured
CO[C@@H](CNC(=O)[C@H](NC(=O)[C@H](O)[C@H](C)O)[C@H](O)c1cncn1C)[C@H](O)[C@H](O)C(=O)N(C)[C@@H](Cc1ccccc1)C(=O)NCC(=O)N[C@H](C(=O)N[C@@H](CO)C(=O)N[C@@H](C)C(=O)N[C@@H](CC(C)C)C(=O)N[C@@H](CO)C(=O)O)C(C)(C)O	> 32	64	32					
CO[C@@H](CNC(=O)[C@H](NC(=O)[C@H](O)[C@H](C)O)[C@H](O)c1cncn1C)[C@H](O)[C@H](O)C(=O)N(C)[C@@H](Cc1ccc(F)cc1)C(=O)NCC(=O)N[C@H](C(=O)N[C@@H](CO)C(=O)N[C@H](C(=O)N[C@H](C(=O)N[C@@H](CO)C(=O)N[C@@H](CN)C(=O)NCc1cc(=O)c(O)cn1O)C(C)(C)C)C(C)(C)O)C(C)(C)O				96	97	95	107	MIC (Escherichia coli [4]): 4 µg/mL; Activity (Klebsiella pneumoniae [5]): Active; Activity (Klebsiella pneumoniae [6]): Active; MIC (Klebsiella pneumoniae [9]): 0.12 µg/mL; MIC (Escherichia coli [10]): 0.01 µg/mL; MIC (Klebsiella pneumoniae [13]): > 32 µg/mL; Activity (Escherichia coli [14]): Active; MIC (Acinetobacter baumannii [15]): 0.5 µg/mL
CC[C@H](C)[C@H](NC(=O)[C@@H](NC(=O)[C@H](CO)NC(=O)[C@@H](NC(=O)CNC(=O)[C@H](Cc1ccccc1)N(C)C(=O)[C@@H](O)[C@@H](O)[C@H](CNC(=O)[C@H](NC(=O)[C@H](O)[C@H](C)O)[C@H](O)c1cncn1C)OC)C(C)(C)O)C(C)(C)O)C(=O)N[C@@H](CO)C(=O)O	> 32	16	4	35	20	11	13	Activity (Escherichia coli [16]): -1.9 log10CFU
CO[C@@H](CNC(=O)[C@H](NC(=O)[C@H](O)[C@H](C)O)[C@H](O)c1cncn1C)[C@H](O)[C@H](O)C(=O)N(C)[C@@H](Cc1ccccc1)C(=O)NCC(=O)N[C@H](C(=O)N[C@@H](CO)C(=O)N[C@H](C(=O)N[C@@H](C)C(=O)N[C@@H](CO)C(=O)O)C(C)(C)O)C(C)(C)O	> 32	64	8					
CO[C@@H](CNC(=O)[C@H](NC(=O)[C@H](O)[C@H](C)O)[C@H](O)c1cncn1C)[C@H](O)[C@H](O)C(=O)N(C)[C@@H](Cc1ccccc1)C(=O)NCC(=O)N[C@H](C(=O)N[C@@H](CO)C(=O)N[C@H](C(=O)N[C@H](C(=O)N[C@@H](CCC(=O)NCc1cc(=O)c(O)cn1O)C(=O)O)C(C)(C)C)C(C)(C)O)C(C)(C)O				100	97	103	99	MIC (Escherichia coli [4]): 0.12 µg/mL; Activity (Klebsiella pneumoniae [5]): Active; Activity (Klebsiella pneumoniae [6]): Active; MIC (Klebsiella pneumoniae [9]): 0.25 µg/mL; MIC (Escherichia coli [10]): 0.01 µg/mL; MIC (Klebsiella pneumoniae [13]): > 32 µg/mL; Activity (Escherichia coli [14]): Active; MIC (Acinetobacter baumannii [15]): 0.5 µg/mL; Activity (Escherichia coli [17]): -3.2 log10CFU
CO[C@@H](CNC(=O)[C@H](NC(=O)[C@H](O)[C@H](C)O)[C@H](O)c1cncn1C)[C@H](O)[C@H](O)C(=O)N(C)[C@@H](Cc1ccccc1)C(=O)NCC(=O)N[C@H](C(=O)N[C@@H](CO)C(=O)N[C@H](C(=O)N[C@@H](CC(C)C)C(=O)N[C@@H](C)C(=O)O)C(C)(C)O)C(C)(C)O	> 32	16	4					
CO[C@@H](CNC(=O)[C@H](NC(=O)[C@H](O)[C@H](C)O)[C@H](O)c1cncn1C)[C@H](O)[C@H](O)C(=O)N(C)[C@@H](Cc1ccccc1)C(=O)NCC(=O)N[C@H](C(=O)N[C@@H](C)C(=O)N[C@H](C(=O)N[C@@H](CC(C)C)C(=O)N[C@@H](CO)C(=O)O)C(C)(C)O)C(C)(C)O	> 32	> 32	4					
CO[C@@H](CNC(=O)[C@H](NC(=O)[C@H](O)[C@H](C)O)[C@H](O)c1cncn1C)[C@H](O)[C@H](O)C(=O)N(C)[C@@H](Cc1ccccc1)C(=O)NCC(=O)N[C@@H](C)C(=O)N[C@@H](CO)C(=O)N[C@H](C(=O)N[C@@H](CC(C)C)C(=O)N[C@@H](CO)C(=O)O)C(C)(C)O	> 32	> 32	> 32					
CO[C@@H](CNC(=O)[C@H](NC(=O)[C@H](O)[C@H](C)O)[C@H](O)c1cncn1C)[C@H](O)[C@H](O)C(=O)N(C)[C@@H](Cc1ccccc1)C(=O)NCC(=O)N[C@H](C(=O)N[C@@H](CO)C(=O)N[C@H](C(=O)N[C@H](C(=O)N[C@@H](CO)C(=O)N[C@@H](CCC(=O)NCc1cc(=O)c(O)cn1O)C(=O)O)C(C)(C)C)C(C)(C)O)C(C)(C)O				91	92	81	86	MIC (Escherichia coli [4]): 0.12 µg/mL; Activity (Klebsiella pneumoniae [5]): Active; Activity (Klebsiella pneumoniae [6]): Active; MIC (Klebsiella pneumoniae [9]): 0.06 µg/mL; MIC (Escherichia coli [10]): < 0.01 µg/mL; MIC (Klebsiella pneumoniae [13]): > 32 µg/mL; Activity (Escherichia coli [14]): Active; MIC (Acinetobacter baumannii [15]): 0.25 µg/mL; Activity (Escherichia coli [17]): -3.8 log10CFU
CO[C@@H](CNC(=O)[C@H](NC(=O)[C@H](O)[C@H](C)O)[C@H](O)c1cncn1C)[C@H](O)[C@H](O)C(=O)N(C)[C@@H](Cc1ccccc1)C(=O)NCC(=O)N[C@H](C(=O)N[C@@H](CO)C(=O)N[C@H](C(=O)N[C@@H](CC(C)C)C(=O)N[C@@H](CO)C(=O)NCCN)C(C)(C)O)C(C)(C)O	> 32	8	2					Activity (Escherichia coli [16]): -4.1 log10CFU
CO[C@@H](CNC(=O)[C@H](NC(=O)[C@H](O)[C@H](C)O)[C@H](O)c1cncn1C)[C@H](O)[C@H](O)C(=O)N(C)[C@@H](Cc1ccc(F)cc1)C(=O)NCC(=O)N[C@H](C(=O)N[C@@H](CO)C(=O)N[C@H](C(=O)N[C@H](C(=O)N[C@@H](CO)C(=O)NCc1cc(=O)c(O)cn1O)C(C)(C)C)C(C)(C)O)C(C)(C)O				81	44	28	54	MIC (Escherichia coli [4]): 2 µg/mL; MIC (Klebsiella pneumoniae [9]): 0.125 µg/mL; MIC (Escherichia coli [10]): < 0.01 µg/mL; MIC (Klebsiella pneumoniae [13]): > 32 µg/mL; MIC (Acinetobacter baumannii [15]): 0.5 µg/mL; Activity (Escherichia coli [17]): -5.6 log10CFU
CO[C@@H](CNC(=O)[C@H](N)[C@H](O)c1cncn1C)[C@H](O)[C@H](O)C(=O)N(C)[C@@H](Cc1ccccc1)C(=O)NCC(=O)N[C@H](C(=O)N[C@@H](CO)C(=O)N[C@H](C(=O)N[C@@H](CC(C)C)C(=O)N[C@@H](CO)C(=O)O)C(C)(C)O)C(C)(C)O	> 32	> 64	> 64					
CO[C@@H](CNC(=O)[C@H](NC(=O)[C@H](O)[C@H](C)O)[C@H](O)c1cncn1C)[C@H](O)[C@H](O)C(=O)N(C)[C@@H](Cc1ccccc1)C(=O)N[C@@H](C)C(=O)N[C@H](C(=O)N[C@@H](CO)C(=O)N[C@H](C(=O)N[C@@H](CC(C)C)C(=O)N[C@@H](CO)C(=O)O)C(C)(C)O)C(C)(C)O	> 32	> 32	8					
CO[C@@H](CNC(=O)[C@H](NC(=O)[C@H](O)[C@H](C)O)[C@H](O)c1cncn1C)[C@H](O)[C@H](O)C(=O)N(C)[C@@H](Cc1ccc(F)cc1)C(=O)NCC(=O)N[C@H](C(=O)N[C@@H](CO)C(=O)N[C@H](C(=O)N[C@H](C(=O)N[C@@H](CO)C(=O)NCCN)C(C)(C)C)C(C)(C)O)C(C)(C)O	> 8	0.25	0.125		105	92		Stability ([7]; 1 h): 127%; Stability ([12]; 4 h): 138%; Activity (Escherichia coli [17]): -5.6 log10CFU
CO[C@@H](CNC(=O)[C@H](NC(=O)[C@H](O)[C@H](C)O)[C@H](O)c1cncn1C)[C@H](O)[C@H](O)C(=O)N(C)[C@@H](Cc1ccc(F)cc1)C(=O)NCC(=O)N[C@H](C(=O)N[C@@H](CO)C(=O)N[C@H](C(=O)N[C@H](C(=O)N[C@@H](CO)C(=O)O)C(C)(C)C)C(C)(C)O)C(C)(C)O	> 32	0.5	0.5	89	109	109	84	
